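The compound was tested at five concentrations on cells cultured in 96-well plates, with a 48-hour exposure period. Here, GI50 denotes the concentration required for 50% inhibition of growth. At the TGI there is no net growth.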
What was measured:
Experiment in all cases: DTP human tumour cell line panel, 48 h
[1] = test system: NCI-H226 lung
[2] = test system: A549 NSCLC
[3] = test system: UACC-257 melanoma
[4] = test system: HS 578T breast
[5] = test system: MOLT-4 leukemia
[6] = test system: OVCAR-3 ovarian
[7] = test system: DU-145 prostate
[8] = test system: HCC-2998 colon
[9] = test system: EKVX NSCLC
[10] = test system: OVCAR-5 ovarian
[11] = test system: HOP-92 NSCLC
[12] = test system: SK-MEL-2 melanoma
[13] = test system: 786-0 renal
[14] = test system: KM12 colon
[15] = test system: SK-MEL-28 melanoma
[16] = test system: U251 CNS
[17] = test system: COLO 205 colon
[18] = test system: CAKI-1 renal
[19] = test system: HOP-62 NSCLC
[20] = test system: T-47D breast
[21] = test system: SF-268 CNS
[22] = test system: HL-60(TB) leukemia
[23] = test system: HCT-15 colon
[24] = test system: RPMI-8226 leukemia
[25] = test system: CCRF-CEM leukemia
[26] = test system: NCI-H460 lung
[27] = test system: NCI-H522 lung
[28] = test system: SN12C renal
[29] = test system: MDA-MB-435
[30] = test system: PC-3 prostate
[31] = test system: HT29 colon
[32] = test system: SK-MEL-5 melanoma
[33] = test system: MDA-MB-231 breast
[34] = test system: SF-539 CNS
[35] = test system: RXF 393 renal
[36] = test system: M14 melanoma
[37] = test system: UO-31 renal
[38] = test system: TK-10 renal
[39] = test system: OVCAR-4 ovarian
[40] = test system: K-562 leukemia
[41] = test system: IGROV1 ovarian
[42] = test system: UACC-62 melanoma
[43] = test system: NCI-H23 lung
[44] = test system: SR leukemia
[45] = test system: OVCAR-8 ovarian
[46] = test system: ACHN renal
[47] = test system: MCF7 breast
[48] = test system: HCT-116 colon
[49] = test system: NCI/ADR-RES ovarian
[50] = test system: MALME-3M melanoma
[51] = test system: SNB-75 CNS
[52] = test system: SW-620 colon
[53] = test system: SNB-19 CNS
[54] = test system: A498 renal
[55] = test system: BT-549 breast
[56] = test system: SF-295 CNS
[57] = test system: SK-OV-3 ovarian
[58] = test system: LOX IMVI melanoma

## CCCN(CCC)c1ccc(CO)c(Cl)c1
[1]
  GI50: 0.166 µM
  TGI: 0.419 µM
[2]
  GI50: 7.2 µM
  TGI: > 63 µM
[3]
  GI50: 0.352 µM
  TGI: 1.49 µM
[4]
  GI50: 25 µM
  TGI: > 91.9 µM
[5]
  GI50: 23.3 µM
  TGI: 62.6 µM
[6]
  GI50: 1.62 µM
  TGI: 5.07 µM
[7]
  GI50: 52 µM
  TGI: > 100 µM
[8]
  GI50: 13.5 µM
  TGI: 48.2 µM
[9]
  GI50: 18.2 µM
  TGI: 59 µM
[10]
  GI50: 0.257 µM
  TGI: 0.718 µM
[11]
  GI50: 9.43 µM
  TGI: 31.2 µM
[12]
  GI50: 9.47 µM
  TGI: 33.9 µM
[13]
  GI50: 16.8 µM
  TGI: 45.6 µM
[14]
  GI50: 35 µM
  TGI: > 100 µM
[15]
  GI50: 42.5 µM
  TGI: > 100 µM
[16]
  GI50: 10.3 µM
  TGI: > 100 µM
[17]
  GI50: 3.5 µM
  TGI: 10.1 µM
[18]
  GI50: 5.77 µM
  TGI: 50.6 µM
[19]
  GI50: 8.25 µM
  TGI: > 100 µM
[20]
  GI50: 0.459 µM
  TGI: 2.91 µM
[21]
  GI50: 47.3 µM
  TGI: > 100 µM
[22]
  GI50: 19.5 µM
  TGI: 44.6 µM
[23]
  GI50: 20.4 µM
  TGI: > 80.9 µM
[24]
  GI50: 5.93 µM
  TGI: 28.9 µM
[25]
  GI50: 17.4 µM
  TGI: 51.7 µM
[26]
  GI50: 2.13 µM
  TGI: 32.1 µM
[27]
  GI50: 16.4 µM
  TGI: 38.9 µM
[28]
  GI50: 39.2 µM
  TGI: > 100 µM
[29]
  GI50: 37.1 µM
  TGI: > 100 µM
[30]
  GI50: 22.8 µM
  TGI: 89.6 µM
[31]
  GI50: 9.75 µM
  TGI: > 52.4 µM
[32]
  GI50: 12.9 µM
  TGI: 27.3 µM
[33]
  GI50: 31.6 µM
  TGI: > 68.4 µM
[34]
  GI50: 40.2 µM
  TGI: > 100 µM
[35]
  GI50: 7.37 µM
  TGI: 29.5 µM
[36]
  GI50: 37.5 µM
  TGI: 97.4 µM
[37]
  GI50: 35.4 µM
  TGI: > 100 µM
[38]
  GI50: 0.223 µM
  TGI: 0.663 µM
[39]
  GI50: 1.21 µM
  TGI: 7.79 µM
[40]
  GI50: 6.21 µM
  TGI: 37.7 µM
[41]
  GI50: 0.401 µM
  TGI: 2.41 µM
[42]
  GI50: 0.485 µM
  TGI: 4.79 µM
[43]
  GI50: 23.2 µM
  TGI: > 100 µM
[44]
  GI50: 19.3 µM
  TGI: 45.9 µM
[45]
  GI50: 34.9 µM
  TGI: > 100 µM
[46]
  GI50: 38.5 µM
  TGI: > 100 µM
[47]
  GI50: 1.23 µM
  TGI: 33 µM
[48]
  GI50: 0.44 µM
  TGI: 7.88 µM
[49]
  GI50: 23.6 µM
  TGI: > 89.7 µM
[50]
  GI50: 29.1 µM
  TGI: > 78.5 µM
[51]
  GI50: 25.8 µM
  TGI: > 96.7 µM
[52]
  GI50: 6.41 µM
  TGI: > 100 µM
[53]
  GI50: > 63.8 µM
  TGI: > 100 µM
[54]
  GI50: 0.117 µM
  TGI: 0.253 µM
[55]
  GI50: 22 µM
  TGI: > 60.2 µM
[56]
  GI50: 5.45 µM
  TGI: > 78.9 µM
[57]
  GI50: 31.3 µM
  TGI: > 100 µM
[58]
  GI50: 30.4 µM
  TGI: > 100 µM

From PubChem BioAssay (NCI)
